The values that follow come from patent publication US10822337B2, “TGF-β inhibitorC” (Rigel Pharmaceuticals, Inc., priority 2015, dated 2020).

For experiment [1], the system named is TGF-β signaling (TGF-β pSMAD, MPC-11). The experiment can be described thus: AlphaScreen SureFire SMAD3 (p-Ser423/425) assay, inhibition of TGF-β signaling. Particulars: Mus musculus, p-SMAD-3 (Ser423/425) in cell lysate after TGF-β stimulation. It counts as cell-based. The method, boiled down:
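Phosphorylation of endogenous SMAD-3 at Ser423/425 was quantified with an AlphaScreen SureFire assay. Cells were exposed to compound for about 10 minutes, stimulated with TGF-β, and lysed in 1× Lysis Buffer. Lysate (5 μL) was combined with Reaction/Activation buffer plus Acceptor beads for 2 hours, then Donor beads for 1½ hours, and read on a plate reader.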

The test system of experiment [2] is GDF8 signaling (GDF pSMAD, MPC11). The experiment can be described thus: AlphaScreen SureFire SMAD3 (p-Ser423/425) assay, inhibition of GDF8 signaling. It counts as cell-based. Particulars: Mus musculus, MPC-11, p-SMAD-3 (Ser423/425) in cell lysate after GDF8 stimulation. On the technique in general: Bead proximity is the source of the signal in Alpha formats.

Structures are written as SMILES.

On to `Cc1cc(-c2nn3c(c2-c2ccc4nccn4c2)CCC3)c(F)cc1F` [Compound 181, 6-(2-(2,4-Difluoro-5-methylphenyl)-5,6-dihydro-4H-pyrrolo[1,2-b]pyrazol-3-yl)imidazo[1,2-a]pyridine], for which the values for the IC50 in experiment [1] and in experiment [2] were 380 nM and 204 nM, respectively.

As for `Cc1cc(-c2nn3c(c2-c2ccc4ncsc4c2)CCC3)c(F)cc1F` [Compound 182, 6-(2-(2,4-Difluoro-5-methylphenyl)-5,6-dihydro-4H-pyrrolo[1,2-b]pyrazol-3-yl)benzo[d]thiazole], the 50% inhibitory concentration (IC50) in experiment [1] is 225 nM; in experiment [2], 112 nM.

As to `Cc1cc(-c2nn3c(c2-c2ccc4ncccc4c2)CCC3)c(F)cc1F` [Compound 183, 6-(2-(2,4-Difluoro-5-methylphenyl)-5,6-dihydro-4H-pyrrolo[1,2-b]pyrazol-3-yl)quinoline], the IC50 in experiment [1] was 1640 nM; in experiment [2], 463 nM.

In the case of `Cc1cc(-c2nn3c(c2-c2ccc4nccnc4c2)CCC3)c(F)cc1F` [Compound 184, 6-(2-(2,4-Difluoro-5-methylphenyl)-5,6-dihydro-4H-pyrrolo[1,2-b]pyrazol-3-yl)quinoxaline], the 50% inhibitory concentration (IC50) in experiment [1] was found to be 302 nM; in experiment [2] it was 139 nM.

In the case of `Cc1cc(-c2nn3c(c2-c2ccc4ncnn4c2)CCC3)c(F)cc1F` [Compound 185, 6-(2-(2,4-Difluoro-5-methylphenyl)-5,6-dihydro-4H-pyrrolo[1,2-b]pyrazol-3-yl)-[1,2,4]triazolo[1,5-a]pyridine], the values for the IC50 in experiment [1] and in experiment [2] were 69.6 nM and 38.5 nM, respectively.

As to `Fc1cc(F)c(-c2nn3c(c2-c2ccc4[nH]ncc4c2)CCC3)cc1Cl` [Compound 186, 5-(2-(5-Chloro-2,4-difluorophenyl)-5,6-dihydro-4H-pyrrolo[1,2-b]pyrazol-3-yl)-1H-indazole], the IC50 in experiment [1] is 350 nM; in experiment [2] it was 106 nM.

As to `Fc1cc(F)c(-c2nn3c(c2-c2ccc4cn[nH]c4c2)CCC3)cc1Cl` [Compound 187, 6-(2-(5-Chloro-2,4-difluorophenyl)-5,6-dihydro-4H-pyrrolo[1,2-b]pyrazol-3-yl)-1H-indazole], the IC50 in experiment [1] was 656 nM; in experiment [2], 135 nM.

In the case of `Fc1cc(F)c(-c2nn3c(c2-c2ccc4nccn4c2)CCC3)cc1Cl` [Compound 188, 6-(2-(5-Chloro-2,4-difluorophenyl)-5,6-dihydro-4H-pyrrolo[1,2-b]pyrazol-3-yl)imidazo[1,2-a]pyridine], the results for the IC50 in experiment [1] and in experiment [2] were 81.7 nM and 63 nM, respectively.

On to `Fc1cc(F)c(-c2nn3c(c2-c2ccc4ncsc4c2)CCC3)cc1Cl` [Compound 189, 6-(2-(5-Chloro-2,4-difluorophenyl)-5,6-dihydro-4H-pyrrolo[1,2-b]pyrazol-3-yl)benzo[d]thiazole], for which the IC50 in experiment [1] was determined as 232 nM; in experiment [2] it was 130 nM.

`Fc1cc(F)c(-c2nn3c(c2-c2ccc4ncccc4c2)CCC3)cc1Cl` [Compound 190, 6-(2-(5-Chloro-2,4-difluorophenyl)-5,6-dihydro-4H-pyrrolo[1,2-b]pyrazol-3-yl)quinoline]: the IC50 in experiment [1] was 872 nM; in experiment [2], 272 nM.

As to `Fc1cc(F)c(-c2nn3c(c2-c2ccc4nccnc4c2)CCC3)cc1Cl` [Compound 191, 6-(2-(5-Chloro-2,4-difluorophenyl)-5,6-dihydro-4H-pyrrolo[1,2-b]pyrazol-3-yl)quinoxaline], the concentration for half-maximal inhibition (IC50) in experiment [1] was found to be 212 nM; in experiment [2] it was 74 nM.

Consider `Fc1cc(F)c(-c2nn3c(c2-c2ccc4ncnn4c2)CCC3)cc1Cl` [Compound 192, 6-(2-(5-Chloro-2,4-difluorophenyl)-5,6-dihydro-4H-pyrrolo[1,2-b]pyrazol-3-yl)-[1,2,4]triazolo[1,5-a]pyridine], for which the results for the IC50 in experiment [1] and in experiment [2] were 66 nM and 43.6 nM, respectively.

Take `Fc1ccc(F)c(-c2nn3c(c2-c2ccc4cn[nH]c4c2)CCC3)c1` [Compound 193, 6-(2-(2,5-Difluorophenyl)-5,6-dihydro-4H-pyrrolo[1,2-b]pyrazol-3-yl)-1H-indazole]: the half-maximal inhibitory concentration (IC50) in experiment [1] is 2590 nM; in experiment [2], 371 nM.

Take `Fc1ccc(F)c(-c2nn3c(c2-c2ccc4nccn4c2)CCC3)c1` [Compound 194, 6-(2-(2,5-Difluorophenyl)-5,6-dihydro-4H-pyrrolo[1,2-b]pyrazol-3-yl)imidazo[1,2-a]pyridine]: the IC50 is 909 nM in experiment [1] and 177 nM in experiment [2].

For `Fc1ccc(F)c(-c2nn3c(c2-c2ccc4ncsc4c2)CCC3)c1` [Compound 195, 6-(2-(2,5-Difluorophenyl)-5,6-dihydro-4H-pyrrolo[1,2-b]pyrazol-3-yl)benzo[d]thiazole], the results for the IC50 in experiment [1] and in experiment [2] were 376 nM and 78.7 nM, respectively.

Regarding `Fc1ccc(F)c(-c2nn3c(c2-c2ccc4ncccc4c2)CCC3)c1` [Compound 196, 6-(2-(2,5-Difluorophenyl)-5,6-dihydro-4H-pyrrolo[1,2-b]pyrazol-3-yl)quinoline], the half-inhibitory concentration (IC50) came to 5260 nM in experiment [1] and 862 nM in experiment [2].

As to `Fc1ccc(F)c(-c2nn3c(c2-c2ccc4nccnc4c2)CCC3)c1` [Compound 197, 6-(2-(2,5-Difluorophenyl)-5,6-dihydro-4H-pyrrolo[1,2-b]pyrazol-3-yl)quinoxaline], the half-maximal inhibitory concentration (IC50) in experiment [1] amounted to 608 nM; in experiment [2], 59 nM.

For `Fc1ccc(F)c(-c2nn3c(c2-c2ccc4ncnn4c2)CCC3)c1` [Compound 198, 6-(2-(2,5-Difluorophenyl)-5,6-dihydro-4H-pyrrolo[1,2-b]pyrazol-3-yl)-[1,2,4]triazolo[1,5-a]pyridine], the IC50 in experiment [1] was determined as 334 nM; in experiment [2] it was 26.4 nM.

For `COc1cnc2ccc(-c3c(-c4cc(F)ccc4F)nn4c3CCC4)cc2n1` [Compound 199, 7-(2-(2,5-difluorophenyl)-5,6-dihydro-4H-pyrrolo[1,2-b]pyrazol-3-yl)-2-methoxyquinoxaline], the IC50 came to 1370 nM in experiment [1] and 428 nM in experiment [2].

With `COCCOc1cnc2ccc(-c3c(-c4cc(F)ccc4F)nn4c3CCC4)cc2n1` [Compound 200, 7-(2-(2,5-difluorophenyl)-5,6-dihydro-4H-pyrrolo[1,2-b]pyrazol-3-yl)-2-(2-methoxyethoxy)quinoxaline], the figures for the IC50 in experiment [1] and in experiment [2] were 952 nM and 274 nM, respectively.

Take `Fc1ccccc1-c1nn2c(c1-c1ccc3ncsc3c1)CCC2` [Compound 201, 6-(2-(2-fluorophenyl)-5,6-dihydro-4H-pyrrolo[1,2-b]pyrazol-3-yl)benzo[d]thiazole]: the values for the half-maximal inhibitory concentration (IC50) in experiment [1] and in experiment [2] were 1460 nM and 225 nM, respectively.

The term IC50 denotes the midpoint of a concentration-inhibition curve.
